Measurements: patent US20250197343A1, “CATIONIC LIPID” (TAKEDA PHARMACEUTICAL COMPANY LIMITED, priority 2021, published 2025)
Read-outs that look alike come from different tables or passages of the source.

Columns and labels:
Huh-7 cells = assay: Evaluation of viability using Huh-7 cells (Test Example 2); assay type: cell-based
Procedure: Huh-7 cells were seeded in a 96-well plate, and PBS, the Luc DNA-encapsulated lipid nanoparticles obtained in the aforesaid Production Example by using the cationic lipids of the Examples shown in Table 3, or Luc DNA-encapsulated lipid nanoparticles for control which were obtained in the same manner as in the aforesaid Production Example except that a known lipid, MC3 (DLin-MC3-DMA) or ALC-0315, was used instead of the cationic lipids of the Examples were added thereto (final concentration: 0.1 μg/mL and 0.3 μg/mL), followed by evaluation of viability (CellTiter-Fluor Cell Viability Assay, Promega Corporation). Taking the viability of dead cell group as 0% and the viability of the PBS group as 100%, the viability of each of the lipid particle groups was calculated. Higher viability indicates higher safety of the lipid particles. When the cationic lipids of the Examples were used, an improvement in safety compared to the control groups of MC3 and ALC-0315 was observed.

ICrl:CD1 (ICR) mice = assay: Mouse bioluminescence imaging evaluation (Test Example 1); assay type: in vivo; conditions: Luc DNA-encapsulated lipid nanoparticles 10 mL/kg i.v. to ICR mice; IVIS total flux 15 minutes after luciferin i.p.
In short: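 ICR mice received Luc DNA-encapsulated lipid nanoparticles i.v. (10 mL/kg), then luciferin 15 mg/mL i.p. (10 mL/kg). Ventral IVIS imaging under isoflurane 15 min after luciferin; total flux scored A (≥3.0E+07), B (1.0E+07 to <3.0E+07), C (<1.0E+07).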

[1] = Rate of encapsulation of Luc DNA in lipid nanoparticles; assay type: physicochemical; design: unit: %; conditions: Luc DNA-encapsulated lipid nanoparticles; cationic lipid:DPPC:cholesterol:GM-020=60:10.6:28:1.4 molar ratio
In short: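 Luc DNA-LNPs (cationic lipid:DPPC:cholesterol:GM-020 = 60:10.6:28:1.4 molar) formed by microfluidic mixing with DNA in 10 mM MES pH 5.5, then dialyzed into PBS. RiboGreen fluorescence measured with and without Triton X-100; encapsulation rate is the encapsulated fraction of total nucleic acid.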

[2] = Particle size of Luc DNA-encapsulated lipid nanoparticles; assay type: physicochemical; conditions: cationic lipid:DPPC:cholesterol:GM-020=60:10.6:28:1.4 molar ratio
In short: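 LNPs of cationic lipid:DPPC:cholesterol:GM-020 (60:10.6:28:1.4 molar) encapsulating luciferase DNA, made by microfluidic mixing with DNA in 10 mM MES pH 5.5, dialysed into PBS, stored in 20% sucrose/PBS at −80 °C. Size by dynamic light scattering, reported as cumulant Z-average.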

[3] = Huh-7 cells, Luc DNA-encapsulated lipid nanoparticles, final concentration 0.1 μg/mL, PBS group = 100%, dead cell group = 0%
[4] = Huh-7 cells, Luc DNA-encapsulated lipid nanoparticles, final concentration 0.3 μg/mL, PBS group = 100%, dead cell group = 0%

SMILES: CCCCCCCCC(CCCCCC)C(=O)OCCCCCCN(CCCCO)CCCCCCOC(=O)C(CCCCCC)CCCCCCCC (centres unmarked) [ALC-0315, reference compound]
- Viability 0.1 μg/ml (%) (Huh-7 cells; [3]): 89%
- Viability 0.3 μg/ml (%) (Huh-7 cells; [4]): 68%

SMILES: CCCCCCCOC(=O)CCCCC(=O)OCC(COC(=O)CCCCC(=O)OCCCCCCC)(COC(=O)CCCN(C)C)COC(=O)CC(CCCCC)CCCCC [Example 13, 1,1′-[2-({[4-(Dimethylamino)butanoyl]oxy}methyl)-2-{[(3-pentyloctanoyl)oxy]methyl}propane-1,3-diyl] 6,6′-diheptyl dihexanedioate]
- Viability 0.1 μg/ml (%) (Huh-7 cells; [3]): 112%
- Viability 0.3 μg/ml (%) (Huh-7 cells; [4]): 105%
- Luminescence (ICrl:CD1 (ICR) mice): A (A represents luminescence of 3.0E+07 or more)
- Rate of encapsulation [1]: 96.3
- Particle size (nm) [2]: 136.5 nm

SMILES: CCCCCCCOC(=O)CCCCC(=O)OCC(COC(=O)CCCCN(C)C)(COC(=O)CC(CCCCC)CCCCC)COC(=O)CC(CCCCC)CCCCC [Example 18, 2-({[5-(Dimethylamino)pentanoyl]oxy}methyl)-3-[(3-pentyloctanoyl)oxy]-2-{[(3-pentyloctanoyl)oxy]methyl}propyl heptyl hexanedioate]
- Viability 0.1 μg/ml (%) (Huh-7 cells; [3]): 110%
- Viability 0.3 μg/ml (%) (Huh-7 cells; [4]): 106%
- Luminescence (ICrl:CD1 (ICR) mice): A (A represents luminescence of 3.0E+07 or more)
- Rate of encapsulation [1]: 96.6
- Particle size (nm) [2]: 138.9 nm

SMILES: CCCCCCCOC(=O)CCCCC(=O)OCC(COC(=O)CCCCC(=O)OCCCCCCC)(COC(=O)CCCN(C)C)COC(=O)CC(CCC)CCCCCCC (centres unmarked) [Example 28, 1,1′-[2-({[4-(Dimethylamino)butanoyl]oxy}methyl)-2-{[(3-propyldecanoyl)oxy]methyl}propane-1,3-diyl] 6,6′-diheptyl dihexanedioate]
- Viability 0.1 μg/ml (%) (Huh-7 cells; [3]): 113%
- Viability 0.3 μg/ml (%) (Huh-7 cells; [4]): 110%
- Luminescence (ICrl:CD1 (ICR) mice): A (A represents luminescence of 3.0E+07 or more)
- Rate of encapsulation [1]: 94.9
- Particle size (nm) [2]: 137.3 nm

SMILES: CCCCCC(CCCCC)COC(=O)CCC(=O)OCC(COC(=O)CCCN(C)C)(COC(=O)CCC(=O)OCC(CCCCC)CCCCC)COC(=O)CCC(=O)OCC(CCCCC)CCCCC [Example 37, 1,1′-{2-({[4-(Dimethylamino)butanoyl]oxy}methyl)-2-[({4-oxo-4-[(2-pentylheptyl)oxy]butanoyl}oxy)methyl]propane-1,3-diyl} 4,4′-bis(2-pentylheptyl) dibutanedioate]
- Viability 0.1 μg/ml (%) (Huh-7 cells; [3]): 111%
- Viability 0.3 μg/ml (%) (Huh-7 cells; [4]): 98%
- Luminescence (ICrl:CD1 (ICR) mice): A (A represents luminescence of 3.0E+07 or more)
- Rate of encapsulation [1]: 97.0
- Particle size (nm) [2]: 124.1 nm

SMILES: CCCCCC(CCCCC)OC(=O)CCC(=O)OCC(COC(=O)CCCN(C)C)(COC(=O)CCC(=O)OC(CCCCC)CCCCC)COC(=O)CCC(=O)OC(CCCCC)CCCCC [Example 39, 1,1′-{2-({[4-(Dimethylamino)butanoyl]oxy}methyl)-2-[({4-oxo-4-[(undecan-6-yl)oxy]butanoyl}oxy)methyl]propane-1,3-diyl} 4,4′-diundecan-6-yl dibutanedioate]
- Viability 0.1 μg/ml (%) (Huh-7 cells): 113%
- Viability 0.3 μg/ml (%) (Huh-7 cells): 94%
- Luminescence (ICrl:CD1 (ICR) mice): B (B represents luminescence of 1.0E+0.7 or more and less than 3.0E+07)
- Rate of encapsulation [1]: 98.5
- Particle size (nm) [2]: 135.2 nm

SMILES: CCCCCC(CCCCC)CC(=O)OCC(COC(=O)CCCCC(=O)OCC(CCC)CCC)(COC(=O)CCCCC(=O)OCC(CCC)CCC)COC(=O)CCCN(CC)C(C)C [Example 116, 1,1′-(2-[({4-[Ethyl(propan-2-yl)amino]butanoyl}oxy)methyl]-2-{[(3-pentyloctanoyl)oxy]methyl}propane-1,3-diyl) 6,6′-bis(2-propylpentyl) dihexanedioate]
- Luminescence (ICrl:CD1 (ICR) mice): B (B represents luminescence of 1.0E+0.7 or more and less than 3.0E+07)
- Rate of encapsulation [1]: 97.0
- Particle size (nm) [2]: 122.0 nm

SMILES: CCCCCC(CCCCC)CC(=O)OCC(COC(=O)CCCCC(=O)OCC(CCCC)CCCC)(COC(=O)CCCCC(=O)OCC(CCCC)CCCC)COC(=O)CCCN(C)C [Example 117, 1,1′-Bis(2-butylhexyl) 6,6′-[2-({[4-(dimethylamino)butanoyl]oxy}methyl)-2-{[(3-pentyloctanoyl)oxy]methyl}propane-1,3-diyl] dihexanedioate]
- Luminescence (ICrl:CD1 (ICR) mice): B (B represents luminescence of 1.0E+0.7 or more and less than 3.0E+07)
- Rate of encapsulation [1]: 82.0
- Particle size (nm) [2]: 161.0 nm

SMILES: CCCCCCOC(=O)C(CCCCCC)C(=O)OCC(COC(=O)CCCCN(C)C)(COC(=O)CC(CCCCC)CCCCC)COC(=O)C(CCCCCC)C(=O)OCCCCCC (centres unmarked) [Example 122, 1,1′-[2-({[5-(Dimethylamino)pentanoyl]oxy}methyl)-2-{[(3-pentyloctanoyl)oxy]methyl}propane-1,3-diyl] 3,3′-dihexyl bis(hexylpropanedioate)]
- Luminescence (ICrl:CD1 (ICR) mice): B (B represents luminescence of 1.0E+0.7 or more and less than 3.0E+07)
- Rate of encapsulation [1]: 96.0
- Particle size (nm) [2]: 152.1 nm

SMILES: CCCCCOC(=O)CCCCCCC(=O)OCC(COC(=O)CCCCCCC(=O)OCCCCC)(COC(=O)CCCN(C)C)COC(=O)CC(CCCCC)CCCCC [Example 129, 1,1′-[2-({[4-(Dimethylamino)butanoyl]oxy}methyl)-2-{[(3-pentyloctanoyl)oxy]methyl}propane-1,3-diyl] 8,8′-dipentyl dioctanedioate]
- Luminescence (ICrl:CD1 (ICR) mice): A (A represents luminescence of 3.0E+07 or more)
- Rate of encapsulation [1]: 92.6
- Particle size (nm) [2]: 144.9 nm

SMILES: CCCCCCCCC(C(=O)OC)C(=O)OCC(COC(=O)CCCN(CC)C(C)C)(COC(=O)CC(CCCCC)CCCCC)COC(=O)C(CCCCCCCC)C(=O)OC (centres unmarked) [Example 133, 1,1′-(2-[({4-[Ethyl(propan-2-yl)amino]butanoyl}oxy)methyl]-2-{[(3-pentyloctanoyl)oxy]methyl}propane-1,3-diyl) 3,3′-dimethyl bis(octylpropanedioate)]
- Luminescence (ICrl:CD1 (ICR) mice): C (C represents luminescence of less than 1.0E+07)
- Rate of encapsulation [1]: 95.3
- Particle size (nm) [2]: 133.4 nm

SMILES: CCCCCCCCCCC(C(=O)OC)C(=O)OCC(COC(=O)CCCN(C)C)(COC(=O)CC(CCCCC)CCCCC)COC(=O)C(CCCCCCCCCC)C(=O)OC (centres unmarked) [Example 134, 1,1′-[2-({[4-(Dimethylamino)butanoyl]oxy}methyl)-2-{[(3-pentyloctanoyl)oxy]methyl}propane-1,3-diyl] 3,3′-dimethyl bis(decylpropanedioate)]
- Luminescence (ICrl:CD1 (ICR) mice): A (A represents luminescence of 3.0E+07 or more)
- Rate of encapsulation [1]: 94.5
- Particle size (nm) [2]: 103.0 nm

SMILES: CCCCCCCCCCC(C(=O)OC)C(=O)OCC(COC(=O)CCCN(CC)C(C)C)(COC(=O)CC(CCCCC)CCCCC)COC(=O)C(CCCCCCCCCC)C(=O)OC (centres unmarked) [Example 135, 1,1′-(2-[({4-[Ethyl(propan-2-yl)amino]butanoyl}oxy)methyl]-2-{[(3-pentyloctanoyl)oxy]methyl}propane-1,3-diyl) 3,3′-dimethyl bis(decylpropanedioate)]
- Luminescence (ICrl:CD1 (ICR) mice): A (A represents luminescence of 3.0E+07 or more)
- Rate of encapsulation [1]: 97.1
- Particle size (nm) [2]: 80.1 nm

SMILES: CCCCC/C=C\C/C=C\CCCCCCCCC(CCCCCCCC/C=C\C/C=C\CCCCC)OC(=O)CCCN(C)C [MC3, reference compound]
- Viability 0.1 μg/ml (%) (Huh-7 cells; [3]): 97%
- Viability 0.3 μg/ml (%) (Huh-7 cells; [4]): 49%
